The source made the active and inactive calls. The rule behind the calls is not given here.
Tests used:
[1] = molecular target: Serine/threonine-protein kinase MRCK alpha (Homo sapiens) (UniProt Q5VT25); test: Inhibition of recombinant human His-tagged CDC42BPA (1-473 residues) expressed in baculovirus expression system at 2 uM using Ser/Thr 13 as substrate measured after 1 hr by Z'-LYTE assay relative to control
PC3MM2 [2] = test: Antitumor activity against human PC3MM2 cells xenografted in female nude mouse model assessed as reduction in P-AKT at T308 level at 50 mg/kg, iv administered once a week and measured at least 8 hrs by immunoblot analysis; format: functional, organism-based
[3] = molecular target: High affinity nerve growth factor receptor (Homo sapiens) (UniProt P04629); test: Inhibition of recombinant human His-tagged NTRK1 (441-796 residues) expressed in insect cells at 2 uM using Tyr 01 as substrate measured after 1 hr by Z'-LYTE assay relative to control; settings: Insect cell
[4] = molecular target: Tyrosine-protein kinase Srms (Homo sapiens) (UniProt Q9H3Y6); test: Inhibition of recombinant human full length GST-tagged SRMS expressed in insect cells at 2 uM using Tyr 01 as substrate measured after 1 hr by Z'-LYTE assay relative to control; settings: Insect cell
[5] = molecular target: Protein-tyrosine kinase 2-beta (Homo sapiens) (UniProt Q14289); test: Inhibition of recombinant human full length GST-tagged PTK2B expressed in insect cells at 2 uM using Tyr 01 as substrate measured after 1 hr by Z'-LYTE assay relative to control; settings: Insect cell
[6] = molecular target: Tyrosine-protein kinase Mer (Homo sapiens) (UniProt Q12866); test: Inhibition of recombinant human GST-tagged MERTK (578-872 residues) expressed in insect cells at 2 uM using Tyr 02 as substrate measured after 1 hr by Z'-LYTE assay relative to control; settings: Insect cell
U-87 MG [7] = test: Induction of apoptosis in human U-87MG cells assessed as reduction in S phase at 1 micromol/L incubated for 24 hrs by FACS analysis; format: functional, cell-based; settings: U-87MG ATCC, dose 1.0 µmol/L
MDA-MB-361 [8] = test: Induction of apoptosis in human MDA-MB-361 cells assessed as induction in cell death at 1 micromol/L incubated for 48 hrs by FACS analysis relative to control; format: functional; settings: dose 1 µmol/L, at 1 µM
[9] = molecular target: Glycogen synthase kinase-3 alpha (Homo sapiens) (UniProt P49840); test: Inhibition of recombinant human full-length GST-tagged GSK3A expressed in insect cells at 2 uM using Ser/Thr 09 as substrate measured after 1 hr by Z'-LYTE assay relative to control; settings: Insect cell
[10] = molecular target: Protein kinase C delta type (Homo sapiens) (UniProt Q05655); test: Inhibition of recombinant human full length GST-tagged PRKCD expressed in baculovirus expression system at 2 uM using Ser/Thr 07 as substrate measured after 1 hr by Z'-LYTE assay relative to control
mTORC2 (Homo sapiens) = mTORC2 (Homo sapiens) (UniProt P42345+Q6R327+Q9BVC4+Q9BPZ7); settings: U-87 MG, dose 0.025-2 µmol/L, time 6.0 hrs
[11] = molecular target: Serine/threonine-protein kinase PAK 3 (Homo sapiens) (UniProt O75914); test: Inhibition of recombinant human full length His-tagged PAK3 expressed in insect cells at 2 uM using Ser/Thr 20 as substrate measured after 1 hr by Z'-LYTE assay relative to control; settings: Insect cell
[12] = tested on: Platelet-derived growth factor receptor alpha (Homo sapiens), P16234 [V561D]; test: Inhibition of recombinant human GST-tagged PDGFRA V561D mutant (550-1089 residues) expressed in insect cells at 2 uM using Tyr 04 as substrate measured after 1 hr by Z'-LYTE assay relative to control; settings: Insect cell
[13] = molecular target: Ephrin type-A receptor 5 (Homo sapiens) (UniProt P54756); test: Inhibition of recombinant human GST-tagged EPHA5 (595-1037 residues) expressed in insect cells at 2 uM using Tyr 01 as substrate measured after 1 hr by Z'-LYTE assay relative to control; settings: Insect cell
[14] = molecular target: PAS domain-containing serine/threonine-protein kinase (Homo sapiens) (UniProt Q96RG2); test: Inhibition of recombinant human GST-tagged PASK (879-1323 residues) expressed in insect cells at 2 uM using Ser/Thr 07 as substrate measured after 1 hr by Z'-LYTE assay relative to control; settings: Insect cell
MDA-MB-361 [15] = test: Antitumor activity against human MDA-MB-361 cells xenografted in female nude mouse model assessed as suppression in P-S6 level at 6 to 12 mg/kg, po qd administered as 5 days on/2 days off regimen for 4 cycles by immunoblot analysis; format: functional, organism-based; settings: dose 6-12 mg/kg, time 28.0 day
[16] = tested on: Tyrosine-protein kinase ABL1 (Homo sapiens), P00519 [E255K]; test: Inhibition of recombinant human full-length His-tagged ABL1 E255K mutant expressed in insect cells at 2 uM using Tyr 02 as substrate measured after 1 hr by Z'-LYTE assay relative to control; settings: Insect cell
[17] = molecular target: Homeodomain-interacting protein kinase 1 (Homo sapiens) (UniProt Q86Z02); test: Inhibition of recombinant human GST-tagged HIPK1 (158-555 residues) expressed in insect cells at 2 uM using Ser/Thr 09 as substrate measured after 1 hr by Z'-LYTE assay relative to control; settings: Insect cell
MDA-MB-361 [18] = test: Antitumor activity against human MDA-MB-361 cells assessed as block the hypoxia-induced lactate production in low oxygen at 0.3 micromol/L incubated for 24 hrs; format: functional, cell-based; settings: dose 0.3 µmol/L
U-87 MG [19] = test: Antiproliferative activity against human U-87MG cells assessed as cell growth inhibition at 10 micromol/L incubated for 3 days by MTS assay relative to control; format: functional, U-87MG ATCC; settings: 72 h, dose 10 µmol/L, time 3 day
[20] = molecular target: Mitogen-activated protein kinase 3 (Homo sapiens) (UniProt P27361); test: Inhibition of recombinant human full length GST-tagged MAPK3 expressed in E. coli at 2 uM using Ser/Thr 03 as substrate measured after 1 hr by Z'-LYTE assay relative to control
[21] = molecular target: Misshapen-like kinase 1 (Homo sapiens) (UniProt Q8N4C8); test: Inhibition of recombinant human GST-tagged MINK1 (1-320 residues) expressed in insect cells at 2 uM using Ser/Thr 07 as substrate measured after 1 hr by Z'-LYTE assay relative to control; settings: Insect cell
[22] = molecular target: Protein kinase C theta type (Homo sapiens) (UniProt Q04759); test: Inhibition of recombinant human PRKCQ at 2 uM using Ser/Thr 07 as substrate measured after 1 hr by Z'-LYTE assay relative to control
PC3MM2 [23] = test: Antitumor activity against human PC3MM2 cells assessed as block the hypoxia-induced VEGF production in low oxygen at 0.3 micromol/L incubated for 24 hrs by ELISA analysis; format: functional, cell-based; settings: dose 0.3 µmol/L
[24] = molecular target: Serine/threonine-protein kinase PAK 6 (Homo sapiens) (UniProt Q9NQU5); test: Inhibition of recombinant human full length His-tagged PAK6 expressed in insect cells at 2 uM using Ser/Thr 20 as substrate measured after 1 hr by Z'-LYTE assay relative to control; settings: Insect cell
MDA-MB-361 [25] = test: Antiproliferative activity against human MDA-MB-361 cells assessed as cell growth inhibition incubated for 24 hrs by MTS assay; format: functional, cell-based; settings: MDA-MB-361, 24 h

Sequence of Tyrosine-protein kinase Mer (Homo sapiens) (Q12866 whole entry, the tested form may be a part): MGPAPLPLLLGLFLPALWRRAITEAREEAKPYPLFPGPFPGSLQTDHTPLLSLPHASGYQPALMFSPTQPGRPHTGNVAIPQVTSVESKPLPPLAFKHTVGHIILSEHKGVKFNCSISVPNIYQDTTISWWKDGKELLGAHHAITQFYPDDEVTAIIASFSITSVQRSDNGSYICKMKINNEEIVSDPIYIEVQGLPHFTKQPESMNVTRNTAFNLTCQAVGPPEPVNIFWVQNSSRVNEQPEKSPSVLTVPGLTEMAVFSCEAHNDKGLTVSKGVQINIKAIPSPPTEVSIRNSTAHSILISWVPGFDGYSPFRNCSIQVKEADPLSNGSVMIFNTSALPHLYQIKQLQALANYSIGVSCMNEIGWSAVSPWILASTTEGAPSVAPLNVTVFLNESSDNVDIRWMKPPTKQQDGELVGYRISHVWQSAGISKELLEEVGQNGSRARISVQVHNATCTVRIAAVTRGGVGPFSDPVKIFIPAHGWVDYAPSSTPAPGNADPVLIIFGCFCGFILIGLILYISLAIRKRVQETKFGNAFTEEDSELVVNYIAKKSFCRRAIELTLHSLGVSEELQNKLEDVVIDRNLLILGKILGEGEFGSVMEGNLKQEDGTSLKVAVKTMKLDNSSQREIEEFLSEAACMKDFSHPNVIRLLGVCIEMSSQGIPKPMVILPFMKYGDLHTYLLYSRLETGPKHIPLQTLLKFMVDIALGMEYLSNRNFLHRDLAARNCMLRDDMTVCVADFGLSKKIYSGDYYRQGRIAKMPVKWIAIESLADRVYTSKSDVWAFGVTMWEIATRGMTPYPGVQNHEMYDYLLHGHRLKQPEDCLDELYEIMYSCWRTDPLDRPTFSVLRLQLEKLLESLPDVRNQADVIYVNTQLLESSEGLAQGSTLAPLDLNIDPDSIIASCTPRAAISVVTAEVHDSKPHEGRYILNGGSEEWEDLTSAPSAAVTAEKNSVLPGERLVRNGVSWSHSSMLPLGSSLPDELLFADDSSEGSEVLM
Sequence of PAS domain-containing serine/threonine-protein kinase (Homo sapiens) (Q96RG2 whole entry, the tested form may be a part): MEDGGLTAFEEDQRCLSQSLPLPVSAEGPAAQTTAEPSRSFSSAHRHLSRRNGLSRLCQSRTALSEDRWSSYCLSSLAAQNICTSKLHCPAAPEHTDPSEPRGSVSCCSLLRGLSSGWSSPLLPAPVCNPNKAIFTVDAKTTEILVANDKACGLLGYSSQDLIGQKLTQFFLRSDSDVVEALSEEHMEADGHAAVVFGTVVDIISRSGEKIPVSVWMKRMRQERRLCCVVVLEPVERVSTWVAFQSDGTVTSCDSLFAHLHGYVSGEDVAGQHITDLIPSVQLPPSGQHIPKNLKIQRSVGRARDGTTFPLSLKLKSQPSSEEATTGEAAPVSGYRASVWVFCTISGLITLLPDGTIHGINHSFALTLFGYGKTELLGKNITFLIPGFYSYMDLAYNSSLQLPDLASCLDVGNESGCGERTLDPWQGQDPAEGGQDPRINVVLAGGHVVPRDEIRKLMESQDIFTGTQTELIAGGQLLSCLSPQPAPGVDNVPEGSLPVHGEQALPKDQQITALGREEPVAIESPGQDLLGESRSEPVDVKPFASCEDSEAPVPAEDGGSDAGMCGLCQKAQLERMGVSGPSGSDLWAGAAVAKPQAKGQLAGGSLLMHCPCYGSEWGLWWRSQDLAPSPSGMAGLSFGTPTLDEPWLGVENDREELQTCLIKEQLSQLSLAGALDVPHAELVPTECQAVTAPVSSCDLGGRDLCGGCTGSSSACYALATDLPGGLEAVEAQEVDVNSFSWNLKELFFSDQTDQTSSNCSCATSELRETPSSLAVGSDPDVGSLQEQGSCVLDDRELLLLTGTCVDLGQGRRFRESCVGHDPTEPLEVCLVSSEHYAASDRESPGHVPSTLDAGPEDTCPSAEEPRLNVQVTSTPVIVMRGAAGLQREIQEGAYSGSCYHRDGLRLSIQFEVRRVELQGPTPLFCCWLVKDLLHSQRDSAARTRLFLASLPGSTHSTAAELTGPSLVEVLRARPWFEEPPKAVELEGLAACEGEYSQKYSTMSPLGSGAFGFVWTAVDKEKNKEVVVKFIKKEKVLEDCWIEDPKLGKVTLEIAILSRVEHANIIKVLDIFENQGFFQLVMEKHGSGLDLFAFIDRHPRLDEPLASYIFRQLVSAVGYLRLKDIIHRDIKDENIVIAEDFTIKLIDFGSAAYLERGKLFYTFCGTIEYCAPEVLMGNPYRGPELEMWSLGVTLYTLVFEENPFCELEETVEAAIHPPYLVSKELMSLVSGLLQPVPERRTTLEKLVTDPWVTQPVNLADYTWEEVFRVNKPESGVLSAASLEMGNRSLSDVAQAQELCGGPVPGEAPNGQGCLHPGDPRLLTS
Sequence of Protein-tyrosine kinase 2-beta (Homo sapiens) (Q14289 whole entry, looked up, the tested form may be a part): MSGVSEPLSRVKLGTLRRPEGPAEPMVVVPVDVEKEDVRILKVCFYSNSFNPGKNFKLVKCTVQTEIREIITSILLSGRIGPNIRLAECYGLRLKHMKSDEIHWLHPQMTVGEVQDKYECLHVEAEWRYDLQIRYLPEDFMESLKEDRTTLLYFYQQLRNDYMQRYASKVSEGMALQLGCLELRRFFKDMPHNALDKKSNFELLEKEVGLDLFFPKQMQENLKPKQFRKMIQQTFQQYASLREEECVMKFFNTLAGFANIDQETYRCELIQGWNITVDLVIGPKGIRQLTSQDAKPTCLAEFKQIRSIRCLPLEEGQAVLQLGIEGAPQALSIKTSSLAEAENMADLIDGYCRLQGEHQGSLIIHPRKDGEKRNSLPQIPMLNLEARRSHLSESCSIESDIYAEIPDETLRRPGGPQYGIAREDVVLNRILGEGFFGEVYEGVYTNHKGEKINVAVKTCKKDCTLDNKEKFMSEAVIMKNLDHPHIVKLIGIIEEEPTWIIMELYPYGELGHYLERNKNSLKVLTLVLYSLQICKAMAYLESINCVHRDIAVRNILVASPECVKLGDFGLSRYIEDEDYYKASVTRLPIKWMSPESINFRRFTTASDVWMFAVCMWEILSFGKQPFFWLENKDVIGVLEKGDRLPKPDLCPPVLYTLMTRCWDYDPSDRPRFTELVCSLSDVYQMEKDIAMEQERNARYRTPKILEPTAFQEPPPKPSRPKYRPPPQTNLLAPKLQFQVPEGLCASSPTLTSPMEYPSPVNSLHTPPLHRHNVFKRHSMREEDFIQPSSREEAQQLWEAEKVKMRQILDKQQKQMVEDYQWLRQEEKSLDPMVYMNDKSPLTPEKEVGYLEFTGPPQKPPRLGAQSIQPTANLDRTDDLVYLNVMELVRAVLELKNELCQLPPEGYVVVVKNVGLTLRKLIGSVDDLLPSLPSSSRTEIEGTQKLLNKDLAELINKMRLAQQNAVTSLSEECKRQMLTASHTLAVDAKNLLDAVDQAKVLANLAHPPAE
Sequence of Glycogen synthase kinase-3 alpha (Homo sapiens) (P49840 2-483 limits assumed): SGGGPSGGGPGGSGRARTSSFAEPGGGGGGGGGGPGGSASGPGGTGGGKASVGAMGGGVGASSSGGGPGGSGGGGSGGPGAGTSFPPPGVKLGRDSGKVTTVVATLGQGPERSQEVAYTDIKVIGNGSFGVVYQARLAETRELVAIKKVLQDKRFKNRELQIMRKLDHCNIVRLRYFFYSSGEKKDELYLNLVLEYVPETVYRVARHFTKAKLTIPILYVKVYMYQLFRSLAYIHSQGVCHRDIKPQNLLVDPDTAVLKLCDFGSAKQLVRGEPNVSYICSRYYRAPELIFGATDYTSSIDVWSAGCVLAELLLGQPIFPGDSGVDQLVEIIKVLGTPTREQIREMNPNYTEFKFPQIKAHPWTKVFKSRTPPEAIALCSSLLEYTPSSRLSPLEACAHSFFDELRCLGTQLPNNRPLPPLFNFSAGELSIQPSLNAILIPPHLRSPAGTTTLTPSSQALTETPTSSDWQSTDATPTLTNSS
Sequence of Tyrosine-protein kinase Srms (Homo sapiens) (Q9H3Y6 whole entry): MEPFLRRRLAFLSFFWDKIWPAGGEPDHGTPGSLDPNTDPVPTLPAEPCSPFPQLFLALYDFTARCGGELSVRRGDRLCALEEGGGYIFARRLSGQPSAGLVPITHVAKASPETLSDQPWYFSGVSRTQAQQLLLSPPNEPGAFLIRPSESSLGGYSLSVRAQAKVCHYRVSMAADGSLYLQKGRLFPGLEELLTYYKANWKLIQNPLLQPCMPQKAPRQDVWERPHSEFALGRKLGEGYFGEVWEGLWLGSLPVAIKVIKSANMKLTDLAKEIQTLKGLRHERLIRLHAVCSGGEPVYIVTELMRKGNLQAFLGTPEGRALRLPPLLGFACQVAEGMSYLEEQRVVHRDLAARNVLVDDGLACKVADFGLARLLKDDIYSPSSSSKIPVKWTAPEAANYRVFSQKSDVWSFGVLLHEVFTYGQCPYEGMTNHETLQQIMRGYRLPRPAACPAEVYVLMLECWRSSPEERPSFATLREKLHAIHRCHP
Sequence of Serine/threonine-protein kinase PAK 3 (Homo sapiens) (O75914 whole entry, looked up, the tested form may be a part): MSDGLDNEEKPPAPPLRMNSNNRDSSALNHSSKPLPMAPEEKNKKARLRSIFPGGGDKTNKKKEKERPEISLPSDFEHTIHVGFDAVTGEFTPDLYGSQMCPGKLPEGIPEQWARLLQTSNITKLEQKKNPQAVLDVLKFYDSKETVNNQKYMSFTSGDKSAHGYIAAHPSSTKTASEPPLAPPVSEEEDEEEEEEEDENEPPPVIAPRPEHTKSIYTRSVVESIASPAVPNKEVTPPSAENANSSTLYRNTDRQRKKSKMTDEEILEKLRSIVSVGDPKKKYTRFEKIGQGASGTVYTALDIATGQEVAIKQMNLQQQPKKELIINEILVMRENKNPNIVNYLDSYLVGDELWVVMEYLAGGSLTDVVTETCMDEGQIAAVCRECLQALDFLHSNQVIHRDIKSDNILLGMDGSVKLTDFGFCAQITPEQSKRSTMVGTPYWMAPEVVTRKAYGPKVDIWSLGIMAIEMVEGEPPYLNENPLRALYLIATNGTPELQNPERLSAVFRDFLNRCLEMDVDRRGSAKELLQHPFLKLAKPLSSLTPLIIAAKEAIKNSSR

## CNC(=O)Nc1ccc(-c2nc(N3CC4CCC(C3)O4)c3cnn(C4CCC5(CC4)OCCO5)c3n2)cc1
[1]
  inhibition: 7%
PC3MM2 [2]
  Activity: inactive
[3]
  inhibition: 7%
[4]
  inhibition: 7%
[5]
  inhibition: -3%
[6]
  inhibition: 1%
U-87 MG [7]
  Activity: Active
MDA-MB-361 [8]
  Activity: 47%
[9]
  inhibition: -1%
[10]
  inhibition: 16%
mTORC2 (Homo sapiens)
  inhibition: Active
[11]
  inhibition: 1%
[12]
  inhibition: 3%
[13]
  inhibition: 2%
[14]
  inhibition: 3%
MDA-MB-361 [15]
  Activity: Active
[16]
  inhibition: 5%
[17]
  inhibition: 1%
MDA-MB-361 [18]
  Activity: Active
U-87 MG [19]
  inhibition at 10 µM: 100%
[20]
  inhibition: 1%
[21]
  inhibition: 14%
[22]
  inhibition: 5%
PC3MM2 [23]
  Activity: Active
[24]
  inhibition: 9%
MDA-MB-361 [25]
  IC50: 24 nM

— ChEMBL document CHEMBL5696439 (Cancer Res, 2010)
